Experimental data: patent US9079866B2, “Flap modulators” (JANSSEN PHARMACEUTICA NV, priority 2013, dated 2015)
Counter-ions that a name gives are not always drawn.

What follows are compounds tested against human FLAP (Homo sapiens (Human), UniProt P20292) (assay: FLAP binding assay (HTRF format)). Details: human FLAP wild type, HTRF format; average of two plates, duplicates.
Protocol: The ability of the compounds of the present invention to treat a FLAP-mediated disease and/or disorder, or associated symptoms or complications thereof, was determined using the following procedures. Binding assay data represent the average value obtained from two different assay plates, with samples run in duplicate on each plate. Human whole blood assay data represent a single replicate on an assay plate using whole blood from at least one healthy donor.
Data are expressed as a HTRF ratio.

Chain of human FLAP (P20292 whole entry): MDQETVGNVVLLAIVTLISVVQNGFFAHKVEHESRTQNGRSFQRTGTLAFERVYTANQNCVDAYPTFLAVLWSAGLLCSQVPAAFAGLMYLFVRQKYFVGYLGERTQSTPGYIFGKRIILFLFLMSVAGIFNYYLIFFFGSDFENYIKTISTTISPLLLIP

Compound | Ki
Nc1ncc(-c2ccc(-c3ccccc3S(=O)(=O)N3CCOCC3)cc2F)cn1 [Example 303, 5-[3-Fluoro-2′-(morpholin-4-ylsulfonyl)biphenyl-4-yl]pyrimidin-2-amine trifluoroacetic acid salt] | 0.612 µM
Nc1cnc(-c2ccc(-c3ccccc3CSc3cccnn3)cc2F)cn1 [Example 239, 5-(3-Fluoro-2′-((pyridazin-3-ylthio)methyl)-[1,1′-biphenyl]-4-yl)pyrazin-2-amine hydrochloride] | 0.006 µM
CN(C)S(=O)(=O)Nc1ccccc1-c1ccc(-c2cnc(N)nc2)c(F)c1 [Example 311, N′-[4′-(2-Aminopyrimidin-5-yl)-3′-fluorobiphenyl-2-yl]-N,N-dimethylsulfamide] | 0.747 µM

Same assay, conditions: read-out: FLAP Binding wild type HTRF Ki

Compound | Ki
CS(=O)(=O)c1ccccc1-c1ccc(-c2cnc(N)nc2)c(F)c1 [Example 304, 5-[3-Fluoro-2′-(methylsulfonyl)biphenyl-4-yl]pyrimidin-2-amine trifluoroacetic acid salt] | > 10 µM

Same assay, conditions: wild type FLAP, HTRF format

Compound | Ki
Nc1ncc(-c2ccc(-c3ccccc3C(=O)N3CCOC(CO)C3)cc2F)cn1 (racemic) [Example 799, racemic [2-[4-(2-Aminopyrimidin-5-yl)-3-fluoro-phenyl]phenyl]-[2-(hydroxymethyl)morpholin-4-yl]methanone] | > 10 µM
CC(=O)N1CCN(C(=O)c2ccccc2-c2ccc(-c3cnc(N)cn3)c(F)c2)CC1 [Example 507, 5-{2′-[(4-Acetylpiperazin-1-yl)carbonyl]-3-fluorobiphenyl-4-yl}pyrazin-2-amine] | > 10 µM
NC(=O)CS(=O)(=O)c1ccccc1-c1ccc(-c2cnc(N)nc2)c(F)c1 [Example 599, 2-{[4′-(2-Aminopyrimidin-5-yl)-3′-fluorobiphenyl-2-yl]sulfonyl}acetamide] | > 10 µM
Nc1ncc(-c2ccc(-c3ccccc3OCCO)cc2F)cn1 [Example 629, 2-{[4′-(2-Aminopyrimidin-5-yl)-3′-fluorobiphenyl-2-yl]oxy}ethanol] | 0.836 µM
CC(C)(C)NS(=O)(=O)c1ccccc1-c1ccc(-c2ccc3c(c2)CC(=O)N3)c(F)c1 [Example 595, N-tert-Butyl-3′-fluoro-4′-(2-oxo-2,3-dihydro-1H-indol-5-yl)biphenyl-2-sulfonamide] | ~2.49 µM
C[C@@H]1COCCN1C(=O)c1ccccc1-c1ccc(-c2cnc(N)nc2)c(F)c1 [Example 779, 5-(3-Fluoro-2′-{[(3R)-3-methylmorpholin-4-yl]carbonyl}biphenyl-4-yl)pyrimidin-2-amine] | ~2.49 µM
Nc1ncc(-c2ccc(-c3ccccc3Oc3ccnc(N)n3)cn2)cn1 [Example 567, 4-{2-[6-(2-Aminopyrimidin-5-yl)pyridin-3-yl]phenoxy}pyrimidin-2-amine] | 1.14 µM
Nc1cnc(-c2ccc(-c3ccccc3N3CCCC3=O)cc2F)cn1 [Example 860, 1-[4′-(5-Aminopyrazin-2-yl)-3′-fluorobiphenyl-2-yl]pyrrolidin-2-one] | ~1.48 µM
Nc1ncc(-c2ccc(-c3ccccc3OCC(=O)O)cc2F)cn1 [Example 644, {[4′-(2-Aminopyrimidin-5-yl)-3′-fluorobiphenyl-2-yl]oxy}acetic acid] | > 10 µM
Nc1cnc(-c2ccc(-c3cccnc3OCCO)cc2F)cn1 [Example 650, 2-({3-[4-(5-Aminopyrazin-2-yl)-3-fluorophenyl]pyridin-2-yl}oxy)ethanol] | 0.832 µM
CC(=O)Nc1ccccc1-c1ccc(-c2cnc(N)cn2)c(F)c1 [Example 459, N-[4′-(5-Aminopyrazin-2-yl)-3′-fluorobiphenyl-2-yl]acetamide] | > 10 µM
Cc1c(-c2ccccc2NS(C)(=O)=O)ccc(-c2cnc(N)cn2)c1F [Example 463, N-[4′-(5-Aminopyrazin-2-yl)-3′-fluoro-2′-methylbiphenyl-2-yl]methanesulfonamide] | 0.982 µM
Nc1cnc(-c2ccc(-c3ccccc3C(=O)N3CC[C@@H](O)C3)cc2F)cn1 [Example 769, (3R)-1-{[4′-(5-Aminopyrazin-2-yl)-3′-fluorobiphenyl-2-yl]carbonyl}pyrrolidin-3-ol] | 1.54 µM
Nc1ncc(-c2ccc(-c3ccccc3C(=O)NC3CCOCC3)cc2F)cn1 [Example 797, 2-[4-(2-Aminopyrimidin-5-yl)-3-fluoro-phenyl]-N-tetrahydropyran-4-yl-benzamide] | > 10 µM
CCN(CC)C(=O)CS(=O)(=O)c1ccccc1-c1ccc(-c2cnc(N)nc2)c(F)c1 [Example 600, 2-{[4′-(2-Aminopyrimidin-5-yl)-3′-fluorobiphenyl-2-yl]sulfonyl}-N,N-diethylacetamide] | > 10 µM
NCCOc1ccccc1-c1ccc(-c2cnc(N)nc2)c(F)c1 [Example 641, 5-[2′-(2-Aminoethoxy)-3-fluorobiphenyl-4-yl]pyrimidin-2-amine] | > 10 µM
Nc1cnc(-c2ccc(-c3ccccc3OC3CCNCC3)cc2F)cn1 [Example 630, 5-[3-Fluoro-2′-(piperidin-4-yloxy)biphenyl-4-yl]pyrazin-2-amine] | 1.9 µM
Cc1cc(-c2ccccc2S(C)(=O)=O)ccc1-c1cnc(N)cn1 [Example 590, 5-[3-Methyl-2′-(methylsulfonyl)biphenyl-4-yl]pyrazin-2-amine] | > 10 µM
Nc1cnc(-c2ccc(-c3ccccc3C(=O)O)cc2F)cn1 [Example 485, 4′-(5-Aminopyrazin-2-yl)-3′-fluorobiphenyl-2-carboxylic acid] | > 10 µM

Compound | Ki
C[C@H](NC(=O)c1ccccc1-c1ccc(-c2cnc(N)nc2)c(F)c1)C(F)(F)F [Example 504, 4′-(2-Aminopyrimidin-5-yl)-3′-fluoro-N-[(1S)-2,2,2-trifluoro-1-methylethyl]biphenyl-2-carboxamide] | 0.768 µM
CS(=O)(=O)c1ccccc1-c1ccc(-c2cnc(N)cn2)cc1 [Example 589, 5-[2′-(Methylsulfonyl)biphenyl-4-yl]pyrazin-2-amine] | > 10 µM
Nc1ncc(-c2ccccc2-c2cnc(-c3cnc(N)nc3)c(F)c2)cn1 [Example 854, 5-{2-[6-(2-Aminopyrimidin-5-yl)-5-fluoropyridin-3-yl]phenyl}pyrimidin-2-amine] | 1.28 µM
Nc1ncc(-c2ccc(-c3ccccc3-c3cnc(N)nc3)cn2)cn1 [Example 855, 5-{5-[2-(2-Aminopyrimidin-5-yl)phenyl]pyridin-2-yl}pyrimidin-2-amine] | > 10 µM
N#Cc1ccccc1-c1ccc(-c2cnc(N)cn2)c(F)c1 [Example 701, 4′-(5-Aminopyrazin-2-yl)-3′-fluorobiphenyl-2-carbonitrile] | ~1.41 µM
CS(=O)(=O)Nc1ccccc1-c1ccc(-c2cnc(N)cn2)cc1 [Example 593, N-[4′-(5-Aminopyrazin-2-yl)biphenyl-2-yl]methanesulfonamide] | > 10 µM
CC(C)(C)C(=O)Nc1ncccc1-c1ccc(-c2cnc(N)cn2)c(F)c1 [Example 801, N-{3-[4-(5-Aminopyrazin-2-yl)-3-fluorophenyl]pyridin-2-yl}-2,2-dimethylpropanamide] | > 10 µM
CC(O)C1CN(C(=O)c2ccccc2-c2ccc(-c3cnc(N)nc3)c(F)c2)CCO1 (mixture of isomers) [Example 759, 1-(4-{[4′-(2-Aminopyrimidin-5-yl)-3′-fluorobiphenyl-2-yl]carbonyl}morpholin-2-yl)ethanol (diastereomeric mixture)] | > 10 µM
CC1CN(C(=O)c2ccccc2-c2ccc(-c3cnc(N)nc3)c(F)c2)CC(C)O1 (mixture of isomers) [Example 780, 5-{2′-[(2,6-Dimethylmorpholin-4-yl)carbonyl]-3-fluorobiphenyl-4-yl}pyrimidin-2-amine (Diastereoisomeric Mixture)] | > 10 µM
CN(C)S(=O)(=O)c1ccccc1-c1ccc(-c2cnc(N)cn2)cc1F [Example 575, 4′-(5-Aminopyrazin-2-yl)-2′-fluoro-N,N-dimethylbiphenyl-2-sulfonamide] | 0.75 µM
Nc1cnc(-c2ccc(-c3ccccc3S(N)(=O)=O)cc2O)cn1 [Example 592, 4′-(5-Aminopyrazin-2-yl)-3′-hydroxybiphenyl-2-sulfonamide] | > 10 µM
CCOC(=O)c1cccc2nc(-c3ccc(-c4ccccc4S(=O)(=O)NC(C)(C)C)cc3F)cn12 [Example 587, Ethyl 2-[2′-(tert-butylsulfamoyl)-3-fluorobiphenyl-4-yl]imidazo[1,2-a]pyridine-5-carboxylate] | > 10 µM
Cc1cc(-c2ccccc2S(=O)(=O)N(C)C)ccc1-c1cnc(N)cn1 [Example 591, 4′-(5-Aminopyrazin-2-yl)-N,N,3′-trimethylbiphenyl-2-sulfonamide] | ~2.49 µM
Nc1cnc(-c2ccc(-c3ccccc3OC(F)(F)F)cc2F)cn1 [Example 475, 5-[3-Fluoro-2′-(trifluoromethoxy)biphenyl-4-yl]pyrazin-2-amine] | 0.75 µM
Nc1ncc(-c2ccc(-c3ccccc3S(=O)(=O)C3CC3)cn2)cn1 [Example 691, 5-{5-[2-(Cyclopropylsulfonyl)phenyl]pyridin-2-yl}pyrimidin-2-amine trifluoroacetic acid salt] | > 10 µM
Nc1ccnc(Oc2ccccc2-c2ccc(-c3cnc(N)nc3)nc2)n1 [Example 568, 5-(5-{2-[(4-Aminopyrimidin-2-yl)oxy]phenyl}pyridin-2-yl)pyrimidin-2-amine] | 2.5 µM
CNC1CCN(C(=O)c2ccccc2-c2ccc(-c3cnc(N)nc3)c(F)c2)CC1 [Example 792, [2-[4-(2-Aminopyrimidin-5-yl)-3-fluoro-phenyl]phenyl]-[4-(methylamino)-1-piperidyl]methanone] | > 10 µM
Nc1cnc(-c2ccc(-c3ccccc3)c(F)c2F)cn1 [Example 833, 5-(2,3-Difluorobiphenyl-4-yl)pyrazin-2-amine] | ~0.5 µM
NC(=O)c1ccccc1-c1ccc(-c2cnc(N)cn2)c(F)c1 [Example 486, 4′-(5-Aminopyrazin-2-yl)-3′-fluorobiphenyl-2-carboxamide] | 2.5 µM
